Biological target: Recombinant human LSD1 (Homo sapiens, UniProt O60341)
Assay: LSD1 inhibition assay (HTRF LSD1 Histone H3K4 mono-demethylation assay, me1->me0)
Assay type: biochemical
Details: 20 nM recombinant human LSD1, 95 nM H3K4(me1) biotinylated peptide, 15 min preincubation, 60 min at 25° C., read-out: LSD1 inhibition IC50 (nM range)
Procedure, shortened: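 HTRF demethylation (me1->me0) read-out: streptavidin-XL665 and anti-H3K4me0 cryptate added after reaction, ratio measured after 90 min dark. Reaction: 95 nM H3K4me1 biotin-peptide, 20 nM LSD1 (15-min compound pre-incubation), 60 min, 25 °C, buffer pH 8.5 plus FAD and DTT; 4-parameter logistic IC50.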

| Structure (SMILES) | IC50 [nM] |
| --- | --- |
| N#Cc1ccc(-c2cccc(CN3[C@@H]4CC[C@H]3[C@@H](N)C4)c2OCC2CC2)cc1F (racemic) [Example 245, 3'-{[(1S,2S,4R)-2-amino-7-azabicyclo[2.2.1]heptan-7-yl]methyl}-2'-(cyclopropylmethoxy)-3-fluoro-[1,1'-biphenyl]-4-carbonitrile] | 25 to 100 |
| Cc1cc(CN2C[C@@H]3[C@@H](N)[C@@H]3C2)c(Cl)c(-c2ccc(C#N)c(F)c2)c1 [Example 347, 3'-{[(1R,5S,6R)-6-amino-3-azabicyclo[3.1.0]hexan-3-yl]methyl}-2'-chloro-3-fluoro-5'-methyl-[1,1'-biphenyl]-4-carbonitrile] | 100 to 1000 |
| N#Cc1ccc(-c2cccc(CN3[C@@H]4CC[C@H]3[C@@H](N)C4)c2-c2ccns2)cc1 (single isomer, unassigned) [Example 204] | 10 to 25 |
| COc1ccc(-c2ccc(CN3[C@@H]4CC[C@H]3[C@@H](N)C4)cc2-c2ccc(C#N)c(F)c2)cn1 (racemic) [Example 230, 5'-{[(1S,2S,4R)-2-amino-7-azabicyclo[2.2.1]heptan-7-yl]methyl}-3-fluoro-2'-(6-methoxypyridin-3-yl)-[1,1'-biphenyl]-4-carbonitrile] | 10 to 25 |
| N#Cc1ccc(-c2cccc(CN3[C@@H]4CC[C@H]3[C@@H](N)C4)c2N2CCC2)cc1F (racemic) [Example 203, 3'-{[(1S,2S,4R)-2-amino-7-azabicyclo[2.2.1]heptan-7-yl]methyl}-2'-(azetidin-1-yl)-3-fluoro-[1,1'-biphenyl]-4-carbonitrile] | 25 to 100 |
| N#Cc1ccc(-c2cc(CC3CNCCO3)ccc2N2CCCOCC2)cc1F (stereo not drawn) [Example 143, 3-fluoro-5'-[(morpholin-2-yl)methyl]-2'-(1,4-oxazepan-4-yl)-[1,1'-biphenyl]-4-carbonitrile] | 100 to 1000 |
| N#Cc1ccc(-c2cc(CC3CNCCO3)ccc2N2CCC3(CCCO3)CC2)cc1F (stereo not drawn) [Example 78, 3-fluoro-5′-[(morpholin-2-yl)methyl]-2′-{1-oxa-8-azaspiro[4.5]decan-8-yl}-[1,1′-biphenyl]-4-carbonitrile] | 100 to 1000 |
| N#Cc1ccc(-c2cc(CN3[C@@H]4CC[C@H]3[C@@H](N)C4)ccc2Cl)cc1F (racemic) [Example 305, 5'-{[(1S,2S,4R)-2-amino-7-azabicyclo[2.2.1]heptan-7-yl]methyl}-2'-chloro-3-fluoro-[1,1'-biphenyl]-4-carbonitrile] | 25 to 100 |
| Cc1cc(CNCC2CCCNC2)c(Cl)c(-c2ccc(C#N)c(F)c2)c1 (stereo not drawn) [Example 348, 2'-chloro-3-fluoro-5'-methyl-3'-({[(piperidin-3-yl)methyl]amino}methyl)-[1,1'-biphenyl]-4-carbonitrile] | 100 to 1000 |
| N#Cc1ccc(-c2cccc(CN3[C@@H]4CC[C@H]3[C@@H](N)C4)c2C2CC2)cc1 (racemic) [Example 191, 3'-{[(1S,2S,4R)-2-amino-7-azabicyclo[2.2.1]heptan-7-yl]methyl}-2'-cyclopropyl-[1,1'-biphenyl]-4-carbonitrile] | 25 to 100 |
| CN[C@@H]1C[C@@H]2CC[C@H]1N2Cc1cccc(-c2ccc(C#N)c(F)c2)c1C1CC1 (single isomer, unassigned) [Example 178] | 10 to 25 |
| N#Cc1ccc(-c2cc(CC3CNCCO3)ccc2N2CCC2)cc1F (stereo not drawn) [Example 44, 2′-(azetidin-1-yl)-3-fluoro-5′-[(morpholin-2-yl)methyl]-[1,1′-biphenyl]-4-carbonitrile] | 100 to 1000 |
| N#Cc1ccc(-c2cc(CC3CNCCO3)ccc2N2CCn3nc(C4CC4)cc3C2)cc1F (stereo not drawn) [Example 97, 2′-{2-cyclopropyl-4H,5H,6H,7H-pyrazolo[1,5-a]pyrazin-5-yl}-3-fluoro-5′-[(morpholin-2-yl)methyl]-[1,1′-biphenyl]-4-carbonitrile] | > 1000 |
| COc1ccc(C2CN(c3ccc(CC4CNCCO4)cc3-c3ccc(C#N)c(F)c3)C2)cn1 (stereo not drawn) [Example 86, 3-fluoro-2′-[3-(6-methoxypyridin-3-yl)azetidin-1-yl]-5′-[(morpholin-2-yl)methyl]-[1,1′-biphenyl]-4-carbonitrile] | 100 to 1000 |
| N#Cc1ccc(-c2cc(CC3CNCCO3)ccc2N2CCOCC2)cc1F (stereo not drawn) [Example 167, 3-fluoro-5′-[(morpholin-2-yl)methyl]-2′-(morpholin-4-yl)-[1,1′-biphenyl]-4-carbonitrile] | > 1000 |
| N#Cc1ccc(-c2cc(CC3CNCCO3)ccc2OC[C@@H]2CCCOC2)cc1F (stereo partly drawn) [Example 72, 3-fluoro-5′-[(morpholin-2-yl)methyl]-2′-{[(3R)-oxa-3-yl]methoxy}-[1,1′-biphenyl]-4-carbonitrile] | 100 to 1000 |
| CC(C)N[C@@H]1C[C@@H]2CC[C@H]1N2Cc1cccc(-c2ccc(C#N)c(F)c2)c1C1CC1 (single isomer, unassigned) [Example 248] | 100 to 1000 |
| N#Cc1ccc(-c2cc(CC3CNCCO3)ccc2N2CCC(c3ncccn3)CC2)cc1F (stereo not drawn) [Example 59, 3-fluoro-5′-[(morpholin-2-yl)methyl]-2′-[4-(pyrimidin-2-yl)piperidin-1-yl]-[1,1′-biphenyl]-4-carbonitrile] | 100 to 1000 |
| N#Cc1ccc(-c2cccc(CN3CC4(CCNCC4)C3)c2Cl)cc1F [Example 288, 2'-chloro-3'-({2,7-diazaspiro[3.5]nonan-2-yl}methyl)-3-fluoro-[1,1'-biphenyl]-4-carbonitrile] | 100 to 1000 |

Results, then the molecule that gave them:

| IC50 [nM] | Structure (SMILES) |
| --- | --- |
| 10 to 25 | N#Cc1ccc(-c2cc(F)cc(CC3CNCCO3)c2-c2ccns2)cc1F (stereo not drawn) [Example 18, 3,5′-difluoro-3′-[(morpholin-2-yl)methyl]-2′-(1,2-thiazol-5-yl)-[1,1′-biphenyl]-4-carbonitrile] |
| 25 to 100 | Cn1cc(-c2c(CC3CNCCO3)cccc2-c2ccc(C#N)c(F)c2)cn1 (stereo not drawn) [Example 153, 3-fluoro-2′-(1-methyl-1H-pyrazol-4-yl)-3′-[(morpholin-2-yl)methyl]-[1,1′-biphenyl]-4-carbonitrile] |
| 25 to 100 | CN1CC2CN(Cc3cccc(-c4ccc(C#N)c(F)c4)c3C3CC3)CC21 (stereo not drawn) [Example 277, 2'-cyclopropyl-3-fluoro-3'-({6-methyl-3,6-diazabicyclo[3.2.0]heptan-3-yl}methyl)-[1,1'-biphenyl]-4-carbonitrile] |
| 25 to 100 | N#Cc1ccc(-c2cccc(CN3CCC4(CC3)CNC4)c2Cl)cc1F [Example 339, 2'-chloro-3'-({2,7-diazaspiro[3.5]nonan-7-yl}methyl)-3-fluoro-[1,1'-biphenyl]-4-carbonitrile] |
| 25 to 100 | Cn1nccc1-c1c(CC2CNCCO2)cccc1-c1ccc(C#N)c(F)c1 (stereo not drawn) [Example 156, 3-fluoro-2′-(1-methyl-1H-pyrazol-5-yl)-3′-[(morpholin-2-yl)methyl]-[1,1′-biphenyl]-4-carbonitrile] |
| 25 to 100 | CC1(N)CCN(Cc2cccc(-c3ccc(C#N)c(F)c3)c2C2CC2)CC1 [Example 205, 3'-[(4-amino-4-methylpiperidin-1-yl)methyl]-2'-cyclopropyl-3-fluoro-[1,1'-biphenyl]-4-carbonitrile] |
| 25 to 100 | N#Cc1ccc(-c2cc(F)cc(CC3CNCCO3)c2-c2cnco2)cc1F (stereo not drawn) [Example 49, 3,5′-difluoro-3′-[(morpholin-2-yl)methyl]-2′-(1,3-oxazol-5-yl)-[1,1′-biphenyl]-4-carbonitrile] |
| 10 to 25 | N#Cc1ccc(-c2cccc(CC3CNCCO3)c2-c2ccno2)cc1 (stereo not drawn) [Example 12, 3′-[(morpholin-2-yl)methyl]-2′-(1,2-oxazol-5-yl)-[1,1′-biphenyl]-4-carbonitrile] |
| 25 to 100 | N#Cc1ccc(-c2cccc(CC3CNCCCO3)c2C2CC2)cc1F (stereo not drawn) [Example 82, 2′-cyclopropyl-3-fluoro-3′-[(1,4-oxazepan-2-yl)methyl]-[1,1′-biphenyl]-4-carbonitrile] |
| 25 to 100 | N#Cc1ccc(-c2cccc(CN3CC4CCC3C(N)C4)c2C2CC2)cc1F (stereo not drawn) [Example 227, 3'-({6-amino-2-azabicyclo[2.2.2]octan-2-yl}methyl)-2'-cyclopropyl-3-fluoro-[1,1'-biphenyl]-4-carbonitrile] |
| < 10 | N#Cc1ccc(-c2cccc(C[C@@H]3CNCCO3)c2C2=CCOC2)cc1F (single isomer, unassigned) [Example 8] |
| 25 to 100 | N#Cc1ccc(-c2cccc(CC3CNCCO3)c2C2=CCCC2)cc1F (stereo not drawn) [Example 64, 2′-(cyclopent-1-en-1-yl)-3-fluoro-3′-[(morpholin-2-yl)methyl]-[1,1′-biphenyl]-4-carbonitrile] |
| 25 to 100 | N#Cc1ccc(-c2cc(CC3CNCCO3)ccc2N2CCC(O)(C3CC3)CC2)cc1F (stereo not drawn) [Example 60, 2′-(4-cyclopropyl-4-hydroxypiperidin-1-yl)-3-fluoro-5′-[(morpholin-2-yl)methyl]-[1,1′-biphenyl]-4-carbonitrile] |
| 10 to 25 | N#Cc1ccc(-c2ccc(F)c(CN3C[C@]4(N)CC[C@H]3C4)c2C2CC2)cc1F [Example 189, 3'-{[(1S,4S)-4-amino-2-azabicyclo[2.2.1]heptan-2-yl]methyl}-2'-cyclopropyl-3,4'-difluoro-[1,1'-biphenyl]-4-carbonitrile] |
| 25 to 100 | CC1(O)CCN(c2ccc(CC3CNCCO3)cc2-c2ccc(C#N)c(F)c2)CC1 (stereo not drawn) [Example 138, 3-fluoro-2′-(4-hydroxy-4-methylpiperidin-1-yl)-5′-[(morpholin-2-yl)methyl]-[1,1′-biphenyl]-4-carbonitrile] |
| 10 to 25 | N#Cc1ccc(-c2cccc(N3CCC(N)CC3)c2-c2ccns2)cc1F [Example 110, 3'-(4-aminopiperidin-1-yl)-3-fluoro-2'-(1,2-thiazol-5-yl)-[1,1'-biphenyl]-4-carbonitrile] |
| 10 to 25 | N#Cc1ccc(-c2cccc(C[C@@H]3CNCCO3)c2-c2ocnc2F)cc1 [Example 3, 2′-(4-fluoro-1,3-oxazol-5-yl)-3′-{[(2R)-orpholin-2-yl]methyl}-[1,1′-biphenyl]-4-carbonitrile] |

— patent US20260209214A1, “LSD1 MODULATORS” (RECURSION PHARMACEUTICALS, INC., priority 2022, published 2026)
